The subject of data set [1] is MPC tumor-bearing NMRI-nu/nu mice. Further details: method as in not given. The following applies: previous study of the authors, ref not given, cited from earlier work.
The target of data set [2] is T1, HSA (Homo sapiens, UniProt P02768). The experiment in a line: Schild analysis of SST2 binding in the presence of HSA. The protocol: 5 Schild analysis of SST2 binding in the presence of HAS. […] Simulation was performed in GraphPad Prism (version 10.2.3) according to the solution in PRISM language provided by Blakeley et al. for their derived cubic equation. (B, C) Exemplary saturation binding curves of [^64Cu]-Cu-NODAGA-cLAB2-TATE (B) and [^64Cu]-Cu-NODAGA-TATE (C) to intact MPC cells in the presence of increasing concentrations of HSA. For each curve, data shown are mean values (±SD) of one experiment, which was performed in triplicate. […] This plot was analyzed by linear regression. The simulation data provide a slope of unity, while for [^64Cu]-Cu-NODAGA-cLAB2-TATE, a slope of 0.69 (CI of 95%: 0.48–0.90, R ^2 = 0.990) was obtained.
Analyzing the experimental data by nonlinear regression according to the model of Blakeley et al. with fixed values for [HSA], [SST2], and K d[SST2], provided the K d[HSA] values (Table ). […]
For Schild analysis, the ratio (similar to the agonist dose ratio, DR) between the apparent K d value in the presence of each HSA concentration and the K d value in the absence of HSA was calculated. Then, the logarithm of these DR minus 1 (log(DR-1)) was calculated and plotted against the log of the concentration of HSA. This plot was analyzed by linear regression with the x-intercept equals to the log(K d) value of the radioligand for HSA.

The target in data set [3] is human serum albumin (HSA) (Homo sapiens, UniProt P02768). Description: Radiometric ultrafiltration assay for binding to HSA.
Procedure: The ultrafiltration assay used to quantify the binding of the ^64Cu-labeled peptides to HSA was performed as previously described for NODAGA-cLAB-TATEs. , Briefly, a constant activity amount of the radioligands (10–15 MBq) were mixed with different HSA concentrations (200 nM–1.4 mM). Aliquots were loaded into the ultrafiltration devices (4104 centrifugal filter units by Millipore; 30 000 Da nominal molecular weight limit, methylcellulose micropartition membranes) and centrifuged. After centrifugation, aliquots from the top and bottom fractions were measured in a γ-counter (PerkinElmer, Wizard^2 2480 automatic gamma counter). The retained fraction was calculated as a quotient of these measurements. The dissociation constant, K d, was calculated using the Morrison equation.
Data set [4] addresses T1, HSA. The experiment in a line: Kd[HSA] from SST2 saturation binding in presence of HSA, nonlinear regression with model of Blakeley et al. From the text: Blakeley et al. developed a mathematical model that includes radioligand, protein (herein HSA), and target receptor (herein SST2) to derive the K d[HSA] value of the radioligand from saturation binding experiments to the target receptor in the presence of HSA. The authors specified an explicit mathematical solution for their proposed cubic equation and provided this solution also in a practical format for GraphPad Prism, which allows the analysis of experimental data but also simulations.

Like-named read-outs stand apart in the source and are kept apart here.

Here are results for one compound from publication PMC12169663, “Deciphering the Tumor Uptake of Heterobivalent (SST2/Albumin) [^64Cu]Cu-NODAGA-cLAB-TATEs” (Journal of Medicinal Chemistry, 2025).

Chain of human serum albumin (HSA) (P02768 25-609): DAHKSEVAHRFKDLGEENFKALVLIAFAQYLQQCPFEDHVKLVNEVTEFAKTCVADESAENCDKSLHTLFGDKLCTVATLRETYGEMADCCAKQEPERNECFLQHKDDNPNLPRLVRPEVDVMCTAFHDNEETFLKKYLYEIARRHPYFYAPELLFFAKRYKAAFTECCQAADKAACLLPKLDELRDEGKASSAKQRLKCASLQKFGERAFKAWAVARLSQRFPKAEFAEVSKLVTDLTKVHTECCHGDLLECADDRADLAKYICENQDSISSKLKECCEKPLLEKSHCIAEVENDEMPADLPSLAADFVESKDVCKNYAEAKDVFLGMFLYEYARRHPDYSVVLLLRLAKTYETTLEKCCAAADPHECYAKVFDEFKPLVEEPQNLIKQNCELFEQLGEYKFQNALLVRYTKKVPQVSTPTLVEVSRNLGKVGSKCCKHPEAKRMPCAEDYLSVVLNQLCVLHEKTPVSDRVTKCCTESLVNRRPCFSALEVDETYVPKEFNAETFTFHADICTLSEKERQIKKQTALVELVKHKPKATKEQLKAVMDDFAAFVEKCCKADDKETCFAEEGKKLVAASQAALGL
T1 sequence (P02768 25-609): as above

Regarding `C[C@@H](O)[C@H](NC(=O)[C@@H]1CSSC[C@H](NC(=O)[C@@H](Cc2ccccc2)NC(=O)COCCOCCNC(=O)[C@H](Cc2cn(-c3ccc(C(=O)N[C@@H](CCCCNC(=O)CCCc4ccc(I)cc4)C(=O)O)cc3)nn2)NC(=O)CC[C@H](C(=O)O)N2CCN(CC(=O)O)CCN(CC(=O)O)CC2)C(=O)N[C@@H](Cc2ccc(O)cc2)C(=O)N[C@H](Cc2c[nH]c3ccccc23)C(=O)N[C@@H](CCCCN)C(=O)N[C@@H]([C@@H](C)O)C(=O)N1)C(=O)O` [[64Cu]Cu-NODAGA-cLAB2-TATE, metal not drawn], the entries for the “tumor SUVmean” value in data set [1] (24 h p.i.) and in data set [1] (48 h p.i.) were 3.1 and 2.4, respectively. The “AUC0–48h[tumor]” value in data set [1] (same MPC model) is listed as 123 SUVmean*h. Further, the “slope of Schild plot” value on HSA [2] (linear regression, CI of 95%: 0.48–0.90) came out at 0.69. Moreover, the Kd is 1.8 µM at HSA [2] (x-intercept of Schild plot, 5–100 μM HSA); 2.6 to 6.1 µM on HSA [4] (1–100 μM HSA, read-out: Kd[HSA] derived from saturation binding, range over the HSA concentrations); 3.06 µM at HSA [4] ([HSA] 20 μM, read-out: Kd[HSA] derived from saturation binding); 2.59 µM on HSA [4] ([HSA] 40 μM, read-out: Kd[HSA] derived from saturation binding); 6.12 µM on HSA [4] ([HSA] 100 μM, read-out: Kd[HSA] derived from saturation binding). The fu is on record as 0.64 in data set [3] (1 μM HSA, fu=Kd/(Bmax+Kd)); 0.26 in data set [3] (5 μM HSA); 0.08 in data set [3] (20 μM HSA); 0.04 in data set [3] (40 μM HSA); 0.02 in data set [3] (100 μM HSA).
